These molecules were tested on Wer 127 (assay: MTT assay Wer 127). Conditions: Table 7.
Format: cell-based
Experimental: (§1) MTT assays. […] Each experiment was performed at least in triplicate.

`CC[C@@]1(O)C(=O)OCc2c1cc1n(c2=O)Cc2c-1nc1cc3c(cc1c2CCc1ccccc1)OCO3` [FL7-14, 20 (S)-7-phenethyl-10,11-methylenedioxy-camptothecin] was tested. Which IC50/EC50 did it give?
The IC50/EC50 was 4.1 nM.

For `CC[C@@]1(O)C(=O)OCc2c1cc1n(c2=O)Cc2c-1nc1cc3c(cc1c2/C=C/C=C/c1ccccc1)OCO3` [FL7s-1], which IC50/EC50 is on record?
Its IC50/EC50 is over 500 nM.

How did the IC50/EC50 turn out when `CCC1(O)C(=O)OCc2c1cc1n(c2=O)Cc2c-1nc1cc3c(cc1c2C=CC=Cc1ccc(OC)cc1)OCO3` (stereo not shown) [FL7s-2] was run?
The IC50/EC50 was over 500 nM.

How did the IC50/EC50 turn out when `CC[C@@]1(O)C(=O)OCc2c1cc1n(c2=O)Cc2c-1nc1cc3c(cc1c2CCc1ccc(F)cc1)OCO3` [FL7s-4] was run?
Its IC50/EC50 is 49.46 nM.

With `CC[C@@]1(O)C(=O)OCc2c1cc1n(c2=O)Cc2c-1nc1cc3c(cc1c2CCCCc1ccccc1)OCO3` [FL7s-5] as the molecule, how does the IC50/EC50 read?
The IC50/EC50 was 381.2 nM.

With `CC[C@@]1(O)C(=O)OCc2c1cc1n(c2=O)Cc2c-1nc1cc3c(cc1c2CCCCc1ccc(OC)cc1)OCO3` [FL7s-6] as the molecule, how does the IC50/EC50 read?
The IC50/EC50 was 6.48 nM.

For `CC[C@@]1(O)C(=O)OCc2c1cc1n(c2=O)Cc2c-1nc1cc3c(cc1c2CCc1ccccc1F)OCO3` [FL7s-8], which IC50/EC50 is on record?
The IC50/EC50 was 28.99 nM.

Which IC50/EC50 does the source give for `CC[C@@]1(O)C(=O)OCc2c1cc1n(c2=O)Cc2c-1nc1cc3c(cc1c2CCc1ccc(F)c(F)c1)OCO3` [FL7s-9] here?
The IC50/EC50 was 1.86 nM.

For `CC[C@@]1(O)C(=O)OCc2c1cc1n(c2=O)Cc2c-1nc1cc3c(cc1c2CCc1cc(F)c(F)c(F)c1)OCO3` [FL7s-10], which IC50/EC50 is on record?
The IC50/EC50 was 12.26 nM.

These molecules were tested on CRC PDX27454 tumors (assay: not given). Conditions: mouse, in vivo.
Experimental: Colorectal cancer (CRC) patient-derived xenograft (PDX) models were used to evaluate their in vivo antitumor activity. […] Treatments were administered weekly for four weeks on days 0, 7, 14 and 21 and tumor volumes and individual body weights were monitored.
Human xenograft tumors used. In this invention disclose, human SW620 (colorectal), HT29 (colorectal) and HT-3 (retinoblastoma) cancer cell line-established xenograft tumors were used. Human tumor cell line-derived xenograft tumors are initially established by subcutaneously injecting 2-5×10^6 cultured cancer cells in a volume of 100-150 p L medium into the flank area of severe combined immunodeficiency (SCID) mice. The derived tumors are then passed a couple of generations in mice by transplanting 30-50 mg non-necrotic tumor mass via a trocar for experiments or maintenance. […] PDX tumors were originally established on severe Combined Immunodeficiency (SCID) mice from pancreatic and colorectal cancer patient tumor tissues obtained from metastatic sites of the disease in the clinic.
Specifically, PDX tumors were originally established on severe Combined Immunodeficiency (SCID) mice from pancreatic and colorectal cancer patient tumor tissues obtained from metastatic sites of the disease in the clinic. […] The vehicle is the same think aqueous suspension without drug. Experimental SCID mice were subcutaneously implanted with 30-40 mg individual PDX tumors (isolated from maintenance mice) at the flank area for PDX27454 of SCID mice. Treatment with vehicle or a drug of 7Q-series (2) was initiated 7-14 days after the transplanted tumors reached 100-200 mm^3 (designated day 0). The animal model of PDX tumors was orally treated weekly for 4 times (one cycle/course, as shown with black arrows) or only one time drug administration.

How did the “antitumor activity, 7Q-series (2)” value turn out when `CC[C@@]1(O)C(=O)OCc2c1cc1n(c2=O)Cc2c-1nc1cc3c(cc1c2-c1ccc(C)c(F)c1)OCO3` [Compound 7Q28] was run?
Its value is “much higher antitumor activity than the other compounds in this 7Q-series (2)”.

And the “effect of oral instead of i.p. administration on antitumor efficacy” value?
Its value is “decreases 7Q28 antitumor efficacy”.

For `CC[C@@]1(O)C(=O)OCc2c1cc1n(c2=O)Cc2c-1nc1cc3c(cc1c2-c1ccc(OC)c(F)c1)OCO3` [Compound 7Q31], which “antitumor activity, 7Q-series (2)” value is on record?
The value was “much higher antitumor activity than the other compounds in this 7Q-series (2)”.

What about the “effect of oral instead of i.p. administration on antitumor efficacy” value of the same molecule?
Its value is “decreases 7Q28 antitumor efficacy”.

Which results are given for `CC[C@@]1(O)C(=O)OCc2c1cc1n(c2=O)Cc2c-1nc1cc3c(cc1c2-c1ccc(F)c(OC)c1)OCO3` [Compound 7Q32]?
antitumor activity, 7Q-series (2): much higher antitumor activity than the other compounds in this 7Q-series (2); toxicity on i.p. versus oral administration: increases 7Q32 toxicity to animals in comparison with oral administration

Which “antitumor activity, 7Q-series (2)” value does the source give for `CC[C@@]1(O)C(=O)OCc2c1cc1n(c2=O)Cc2c-1nc1cc3c(cc1c2-c1cccc(C(F)(F)F)c1)OCO3` [Compound 7Q35] here?
The value was “much higher antitumor activity than the other compounds in this 7Q-series (2)”.

What about the “effect of oral instead of i.p. administration on antitumor efficacy” value of the same molecule?
Its value is “decreases 7Q35 antitumor efficacy”.

`CC[C@@]1(O)C(=O)OCc2c1cc1n(c2=O)Cc2c-1nc1cc3c(cc1c2-c1cccc(OC(F)(F)F)c1)OCO3` [Compound 7Q36] was tested. Which “antitumor activity, 7Q-series (2)” value did it give?
The value was “much higher antitumor activity than the other compounds in this 7Q-series (2)”.

And the “loss of antitumor efficacy on oral administration” value?
Its value is over 80%.

What follows are molecules tested on HT-3 (assay: MTT assay HT-3). Conditions: Table 7; HT-3.
Format: cell-based, human
Experimental: MTT assays. […] Viable cells (2500 cells per well) were plated in each well in 96-well plates. After an overnight incubation, cells were treated with and without relevant drugs alone and in combination, respectively, at various concentrations and incubated for 72 hours. MTT, a colorimetric substrate, was added to a final concentration of 0.4 mg/ml to each well. Cells in 96-well plates were further incubated in a 5% CO2 incubator at 37° C. for 4 hours, and then the medium was aspirated. The MTT metabolic product formazan was solubilized by adding 200 ul of DMSO to each well. Absorbance in the relevant wells was measured at 570 nm using an Ultra Microplate Reader (Bio-Tek Instruments). Each experiment was performed at least in triplicate. IC50/EC50 values were calculated from a series of drug dose ranges for each analyzed compound, using GraphPad Prism 6 (GraphPad Software, Inc., La Jolla, CA).
The inhibition of cell growth and viability in various cancer cell types were tested using MTT assay for references.

`CC[C@@]1(O)C(=O)OCc2c1cc1n(c2=O)Cc2c-1nc1cc3c(cc1c2CCc1ccccc1)OCO3` [FL7-14, 20 (S)-7-phenethyl-10,11-methylenedioxy-camptothecin] was tested. Which IC50/EC50 did it give?
The IC50/EC50 was 36.9 nM.

Which IC50/EC50 does the source give for `CC[C@@]1(O)C(=O)OCc2c1cc1n(c2=O)Cc2c-1nc1cc3c(cc1c2/C=C/C=C/c1ccccc1)OCO3` [FL7s-1] here?
The IC50/EC50 was 11.9 nM.

`CCC1(O)C(=O)OCc2c1cc1n(c2=O)Cc2c-1nc1cc3c(cc1c2C=CC=Cc1ccc(OC)cc1)OCO3` (stereo not shown) [FL7s-2] was tested. Which IC50/EC50 did it give?
Its IC50/EC50 is 113.2 nM.

`CC[C@@]1(O)C(=O)OCc2c1cc1n(c2=O)Cc2c-1nc1cc3c(cc1c2CCc1ccc(F)cc1)OCO3` [FL7s-4] was tested. Which IC50/EC50 did it give?
Its IC50/EC50 is 4.7 nM.

For `CC[C@@]1(O)C(=O)OCc2c1cc1n(c2=O)Cc2c-1nc1cc3c(cc1c2CCCCc1ccccc1)OCO3` [FL7s-5], which IC50/EC50 is on record?
Its IC50/EC50 is 3.58 nM.

With `CC[C@@]1(O)C(=O)OCc2c1cc1n(c2=O)Cc2c-1nc1cc3c(cc1c2CCCCc1ccc(OC)cc1)OCO3` [FL7s-6] as the molecule, how does the IC50/EC50 read?
The IC50/EC50 was 7.7 nM.

`CC[C@@]1(O)C(=O)OCc2c1cc1n(c2=O)Cc2c-1nc1cc3c(cc1c2CCc1ccccc1F)OCO3` [FL7s-8] was tested. Which IC50/EC50 did it give?
Its IC50/EC50 is 4.88 nM.

`CC[C@@]1(O)C(=O)OCc2c1cc1n(c2=O)Cc2c-1nc1cc3c(cc1c2CCc1ccc(F)c(F)c1)OCO3` [FL7s-9] was tested. Which IC50/EC50 did it give?
Its IC50/EC50 is 3.42 nM.

How did the IC50/EC50 turn out when `CC[C@@]1(O)C(=O)OCc2c1cc1n(c2=O)Cc2c-1nc1cc3c(cc1c2CCc1cc(F)c(F)c(F)c1)OCO3` [FL7s-10] was run?
The IC50/EC50 was 3.44 nM.

The molecules below were run on Y79 (assay: MTT assay Y79). Conditions: Table 7.
Format: cell-based
Experimental: as §1

Which IC50/EC50 does the source give for `CC[C@@]1(O)C(=O)OCc2c1cc1n(c2=O)Cc2c-1nc1cc3c(cc1c2CCc1ccccc1)OCO3` [FL7-14, 20 (S)-7-phenethyl-10,11-methylenedioxy-camptothecin] here?
The IC50/EC50 was 8.39 nM.

Which IC50/EC50 does the source give for `CC[C@@]1(O)C(=O)OCc2c1cc1n(c2=O)Cc2c-1nc1cc3c(cc1c2/C=C/C=C/c1ccccc1)OCO3` [FL7s-1] here?
The IC50/EC50 was 4.16 nM.

With `CCC1(O)C(=O)OCc2c1cc1n(c2=O)Cc2c-1nc1cc3c(cc1c2C=CC=Cc1ccc(OC)cc1)OCO3` (stereo not shown) [FL7s-2] as the molecule, how does the IC50/EC50 read?
The IC50/EC50 was 41.48 nM.

`CC[C@@]1(O)C(=O)OCc2c1cc1n(c2=O)Cc2c-1nc1cc3c(cc1c2CCc1ccc(F)cc1)OCO3` [FL7s-4] was tested. Which IC50/EC50 did it give?
The IC50/EC50 was 0.62 nM.

How did the IC50/EC50 turn out when `CC[C@@]1(O)C(=O)OCc2c1cc1n(c2=O)Cc2c-1nc1cc3c(cc1c2CCCCc1ccccc1)OCO3` [FL7s-5] was run?
Its IC50/EC50 is 1.11 nM.

How did the IC50/EC50 turn out when `CC[C@@]1(O)C(=O)OCc2c1cc1n(c2=O)Cc2c-1nc1cc3c(cc1c2CCCCc1ccc(OC)cc1)OCO3` [FL7s-6] was run?
Its IC50/EC50 is 1.52 nM.

With `CC[C@@]1(O)C(=O)OCc2c1cc1n(c2=O)Cc2c-1nc1cc3c(cc1c2CCc1ccccc1F)OCO3` [FL7s-8] as the molecule, how does the IC50/EC50 read?
Its IC50/EC50 is 1.56 nM.

How did the IC50/EC50 turn out when `CC[C@@]1(O)C(=O)OCc2c1cc1n(c2=O)Cc2c-1nc1cc3c(cc1c2CCc1ccc(F)c(F)c1)OCO3` [FL7s-9] was run?
Its IC50/EC50 is 1 nM.

How did the IC50/EC50 turn out when `CC[C@@]1(O)C(=O)OCc2c1cc1n(c2=O)Cc2c-1nc1cc3c(cc1c2CCc1cc(F)c(F)c(F)c1)OCO3` [FL7s-10] was run?
The IC50/EC50 was 1.15 nM.
